29 compounds from patent publication US9302988B2, “Fluoromethyl-substituted pyrrole carboxamides” (GRÜNENTHAL GMBH, priority 2012, dated 2016) can be followed below.

T1 sequence (Q00975 whole entry): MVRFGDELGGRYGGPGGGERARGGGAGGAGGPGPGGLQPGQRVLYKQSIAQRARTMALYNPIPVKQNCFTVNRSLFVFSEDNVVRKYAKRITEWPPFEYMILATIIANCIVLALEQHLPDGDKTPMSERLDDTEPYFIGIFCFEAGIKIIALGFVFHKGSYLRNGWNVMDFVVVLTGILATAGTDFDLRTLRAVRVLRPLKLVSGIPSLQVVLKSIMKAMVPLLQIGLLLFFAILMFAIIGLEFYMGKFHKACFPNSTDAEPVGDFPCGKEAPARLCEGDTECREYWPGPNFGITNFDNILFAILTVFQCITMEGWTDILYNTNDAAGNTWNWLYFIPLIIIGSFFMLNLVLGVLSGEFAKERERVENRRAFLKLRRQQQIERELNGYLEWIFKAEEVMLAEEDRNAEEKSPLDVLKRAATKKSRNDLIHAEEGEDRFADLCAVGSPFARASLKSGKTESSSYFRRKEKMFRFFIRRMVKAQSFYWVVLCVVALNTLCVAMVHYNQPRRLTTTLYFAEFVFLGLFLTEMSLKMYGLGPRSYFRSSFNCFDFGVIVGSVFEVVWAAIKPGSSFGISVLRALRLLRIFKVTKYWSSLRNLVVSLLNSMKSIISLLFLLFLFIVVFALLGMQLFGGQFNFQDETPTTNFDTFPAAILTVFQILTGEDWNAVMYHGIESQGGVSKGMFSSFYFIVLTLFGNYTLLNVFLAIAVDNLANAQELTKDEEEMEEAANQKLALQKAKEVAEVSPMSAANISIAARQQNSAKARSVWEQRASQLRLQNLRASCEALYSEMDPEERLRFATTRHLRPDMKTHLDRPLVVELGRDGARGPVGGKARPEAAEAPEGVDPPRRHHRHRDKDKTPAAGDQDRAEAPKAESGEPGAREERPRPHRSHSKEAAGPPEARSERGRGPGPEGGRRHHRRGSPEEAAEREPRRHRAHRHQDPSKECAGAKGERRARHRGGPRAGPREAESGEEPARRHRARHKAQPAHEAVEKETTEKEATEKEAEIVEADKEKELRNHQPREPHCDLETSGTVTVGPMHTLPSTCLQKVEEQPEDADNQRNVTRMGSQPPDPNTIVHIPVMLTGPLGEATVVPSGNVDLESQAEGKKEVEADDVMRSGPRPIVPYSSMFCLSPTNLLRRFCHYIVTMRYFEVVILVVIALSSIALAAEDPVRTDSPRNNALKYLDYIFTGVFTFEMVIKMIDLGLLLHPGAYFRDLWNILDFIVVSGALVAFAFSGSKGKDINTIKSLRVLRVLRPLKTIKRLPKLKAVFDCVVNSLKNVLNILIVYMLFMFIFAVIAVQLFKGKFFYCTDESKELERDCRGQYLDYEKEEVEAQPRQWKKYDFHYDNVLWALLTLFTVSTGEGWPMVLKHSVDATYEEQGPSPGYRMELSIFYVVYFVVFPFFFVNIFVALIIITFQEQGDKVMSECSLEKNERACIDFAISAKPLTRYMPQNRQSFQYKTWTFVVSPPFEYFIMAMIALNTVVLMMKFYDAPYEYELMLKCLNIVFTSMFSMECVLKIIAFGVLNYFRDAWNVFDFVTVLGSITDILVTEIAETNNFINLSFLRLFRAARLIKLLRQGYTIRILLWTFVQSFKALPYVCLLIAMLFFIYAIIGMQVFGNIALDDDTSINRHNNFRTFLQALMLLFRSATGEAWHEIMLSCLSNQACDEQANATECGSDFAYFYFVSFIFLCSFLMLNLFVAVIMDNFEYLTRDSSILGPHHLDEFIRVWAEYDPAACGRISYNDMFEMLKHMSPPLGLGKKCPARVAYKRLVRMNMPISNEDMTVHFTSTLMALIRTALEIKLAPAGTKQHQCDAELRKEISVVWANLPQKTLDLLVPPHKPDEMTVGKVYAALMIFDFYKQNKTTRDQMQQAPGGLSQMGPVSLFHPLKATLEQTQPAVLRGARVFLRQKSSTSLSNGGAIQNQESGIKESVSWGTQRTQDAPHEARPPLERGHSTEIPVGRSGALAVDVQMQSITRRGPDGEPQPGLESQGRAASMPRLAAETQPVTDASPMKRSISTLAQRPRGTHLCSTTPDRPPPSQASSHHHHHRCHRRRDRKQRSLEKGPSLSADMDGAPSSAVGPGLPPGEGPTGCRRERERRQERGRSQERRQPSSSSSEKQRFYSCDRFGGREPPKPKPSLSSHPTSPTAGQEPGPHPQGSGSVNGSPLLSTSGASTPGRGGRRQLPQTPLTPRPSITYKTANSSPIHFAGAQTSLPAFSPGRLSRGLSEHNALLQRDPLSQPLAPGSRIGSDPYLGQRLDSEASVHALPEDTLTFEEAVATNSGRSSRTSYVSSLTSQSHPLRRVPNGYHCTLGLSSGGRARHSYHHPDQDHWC
T1 sequence (P54289 25-1103, further chain): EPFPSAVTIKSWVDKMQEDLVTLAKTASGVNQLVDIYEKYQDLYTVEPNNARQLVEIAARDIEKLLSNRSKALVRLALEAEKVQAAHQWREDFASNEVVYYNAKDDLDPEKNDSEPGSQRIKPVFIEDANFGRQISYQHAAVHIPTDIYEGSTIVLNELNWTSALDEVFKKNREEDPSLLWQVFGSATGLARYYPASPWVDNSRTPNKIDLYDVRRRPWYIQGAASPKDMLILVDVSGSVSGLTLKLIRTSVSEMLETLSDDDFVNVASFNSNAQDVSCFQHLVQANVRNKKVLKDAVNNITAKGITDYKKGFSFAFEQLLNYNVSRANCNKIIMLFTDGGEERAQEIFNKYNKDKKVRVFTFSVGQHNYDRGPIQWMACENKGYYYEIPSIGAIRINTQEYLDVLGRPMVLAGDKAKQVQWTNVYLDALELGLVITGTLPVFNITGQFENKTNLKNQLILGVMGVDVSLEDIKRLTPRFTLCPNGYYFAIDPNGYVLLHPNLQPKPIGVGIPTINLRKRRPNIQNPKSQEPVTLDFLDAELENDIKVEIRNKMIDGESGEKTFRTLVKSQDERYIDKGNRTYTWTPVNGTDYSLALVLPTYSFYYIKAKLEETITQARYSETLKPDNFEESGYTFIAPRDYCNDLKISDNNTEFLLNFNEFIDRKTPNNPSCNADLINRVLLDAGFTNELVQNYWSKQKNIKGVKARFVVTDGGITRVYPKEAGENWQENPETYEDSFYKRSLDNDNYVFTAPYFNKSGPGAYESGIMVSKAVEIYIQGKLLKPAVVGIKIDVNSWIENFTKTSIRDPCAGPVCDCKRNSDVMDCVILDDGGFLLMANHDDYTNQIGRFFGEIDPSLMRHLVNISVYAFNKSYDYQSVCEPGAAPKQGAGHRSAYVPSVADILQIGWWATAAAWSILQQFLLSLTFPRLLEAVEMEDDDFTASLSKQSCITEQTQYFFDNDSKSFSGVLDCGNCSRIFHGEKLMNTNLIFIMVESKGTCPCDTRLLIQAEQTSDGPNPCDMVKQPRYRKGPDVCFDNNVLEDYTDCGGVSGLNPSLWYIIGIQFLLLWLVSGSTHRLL
T1 sequence (P54284 whole entry, further chain): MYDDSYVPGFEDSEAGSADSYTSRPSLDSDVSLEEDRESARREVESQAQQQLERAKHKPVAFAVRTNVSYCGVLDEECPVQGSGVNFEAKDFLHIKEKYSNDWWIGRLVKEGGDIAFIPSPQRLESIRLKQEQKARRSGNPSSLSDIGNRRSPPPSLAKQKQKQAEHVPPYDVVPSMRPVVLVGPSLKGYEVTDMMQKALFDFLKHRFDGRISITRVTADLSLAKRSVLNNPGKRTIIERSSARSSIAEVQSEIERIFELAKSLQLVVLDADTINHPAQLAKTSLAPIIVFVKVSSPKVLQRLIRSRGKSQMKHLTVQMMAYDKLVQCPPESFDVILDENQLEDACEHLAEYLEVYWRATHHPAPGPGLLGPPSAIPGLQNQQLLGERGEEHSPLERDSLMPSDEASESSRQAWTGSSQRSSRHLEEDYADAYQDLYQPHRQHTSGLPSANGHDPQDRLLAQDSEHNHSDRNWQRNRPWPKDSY

This test has as its target T1, Human CaV2.2 channels (Homo sapiens, UniProt Q00975).
T1 construct: expressed in transfected cells
Briefly: Fluorescent assay for CaV2.2 channels using potassium depolarization to induce channel opening (FLIPR, Fluo-4). It counts as cell-based. Particulars: 3 μM test compound, 30 mM KCl, HEK293 cells stably expressing human CaV2.2; read-out: %-Inhib (CaV2.2) @3 μM @30 mM KCl. In short, it runs like this:
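Channel block was read as the baseline-normalized peak Ca²⁺ signal (Fluo-4, 480/535 nm) after a high-KCl depolarizing addition (210 mM KCl buffer). Beforehand, compound sat 15 min at 25 °C on HEK293 cells carrying human CaV2.2, α2δ/β subunits and Kir2.3, in pH 7.4 buffer with 30 mM KCl.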
On to `O=C1CN(C(=O)c2c(-c3ccc(Cl)cc3F)cc(C(F)(F)F)n2Cc2ccccc2)CCN1` [SC-89, 4-[1-Benzyl-3-(4-chloro-2-fluoro-phenyl)-5-(trifluoromethyl)-1H-pyrrole-2-carbonyl]-piperazin-2-one], for which the inhibition at 3 µM is 75 to 95%. Turning to `CN(CCS(C)(=O)=O)C(=O)c1c(-c2ccc(Cl)cc2F)cc(C(F)(F)F)n1Cc1ccccc1` [SC-90, 1-Benzyl-3-(4-chloro-2-fluoro-phenyl)-N-methyl-N-(2-methylsulfonyl-ethyl)-5-(trifluoromethyl)-1H-pyrrole-2-carboxylic acid amide], the inhibition at 3 µM is above 95%.

Turning to `CN(CC(C)(C)S(C)(=O)=O)C(=O)c1c(-c2ccc(Cl)cc2)cc(C(F)(F)F)n1Cc1ccccc1` [SC-92, 1-Benzyl-3-(4-chlorophenyl)-N-methyl-N-(2-methyl-2-methylsulfonyl-propyl)-5-(trifluoromethyl)-1H-pyrrole-2-carboxylic acid amide], the inhibition at 3 µM is above 95%. The figure for `Cc1c(-c2ccc(Cl)cc2)c(C(=O)N2CC(F)(F)C2)n(Cc2ccccc2)c1C(F)(F)F` [SC-93, [1-Benzyl-3-(4-chlorophenyl)-4-methyl-5-(trifluoromethyl)-1H-pyrrol-2-yl]-(3,3-difluoro-azetidin-1-yl)-methanone] is 75 to 95%; for `O=C(c1c(-c2ccc(Cl)cc2)cc(C(F)(F)F)n1Cc1ccccc1)N1CC(F)(F)C1` [SC-94, [1-Benzyl-3-(4-chlorophenyl)-5-(trifluoromethyl)-1H-pyrrol-2-yl]-(3,3-difluoro-azetidin-1-yl)-methanone] it is 75 to 95%.

As to `Cc1c(-c2ccc(F)cc2)c(C(=O)N2CC(F)(F)C2)n(Cc2ccccc2)c1C(F)(F)F` [SC-95, [1-Benzyl-3-(4-fluorophenyl)-4-methyl-5-(trifluoromethyl)-1H-pyrrol-2-yl]-(3,3-difluoro-azetidin-1-yl)-methanone], the inhibition at 3 µM was in the range of 75 to 95%. The figure for `Cc1c(-c2ccc(C(F)(F)F)cc2)c(C(=O)N2CC(F)(F)C2)n(Cc2ccccc2)c1C(F)(F)F` [SC-96, [1-Benzyl-4-methyl-5-(trifluoromethyl)-3-[4-(trifluoromethyl)-phenyl]-1H-pyrrol-2-yl]-(3,3-difluoro-azetidin-1-yl)-methanone] is 40 to 75%; for `Cc1c(-c2ccc(OC(F)(F)F)cc2)c(C(=O)N2CC(F)(F)C2)n(Cc2ccccc2)c1C(F)(F)F` [SC-97, [1-Benzyl-4-methyl-5-(trifluoromethyl)-3-[4-(trifluoromethyloxy)-phenyl]-1H-pyrrol-2-yl]-(3,3-difluoro-azetidin-1-yl)-methanone] it is 40 to 75%.

As to `Cc1c(-c2ccc(Cl)c(F)c2)c(C(=O)N2CC(F)(F)C2)n(Cc2ccccc2)c1C(F)(F)F` [SC-98, [1-Benzyl-3-(4-chloro-3-fluoro-phenyl)-4-methyl-5-(trifluoromethyl)-1H-pyrrol-2-yl]-(3,3-difluoro-azetidin-1-yl)-methanone], the inhibition at 3 µM fell in the range of 40 to 75%.

With `Cc1c(-c2ccc(F)c(Cl)c2)c(C(=O)N2CC(F)(F)C2)n(Cc2ccccc2)c1C(F)(F)F` [SC-99, [1-Benzyl-3-(3-chloro-4-fluoro-phenyl)-4-methyl-5-(trifluoromethyl)-1H-pyrrol-2-yl]-(3,3-difluoro-azetidin-1-yl)-methanone], the inhibition at 3 µM was 40 to 75%. To `Cc1c(-c2ccc(Cl)cc2F)c(C(=O)N2CC(F)(F)C2)n(Cc2ccccc2)c1C(F)(F)F` [SC-100, [1-Benzyl-3-(4-chloro-2-fluoro-phenyl)-4-methyl-5-(trifluoromethyl)-1H-pyrrol-2-yl]-(3,3-difluoro-azetidin-1-yl)-methanone] belongs 75 to 95%. In the case of `Cc1c(-c2ccc(F)cc2)c(C(=O)N2CCOCC2)n(Cc2ccccc2)c1C(F)(F)F` [SC-101, [1-Benzyl-3-(4-fluorophenyl)-4-methyl-5-(trifluoromethyl)-1H-pyrrol-2-yl]-morpholin-4-yl-methanone], the inhibition at 3 µM is above 95%. To `Cc1c(-c2ccc(C(F)(F)F)cc2)c(C(=O)N2CCOCC2)n(Cc2ccccc2)c1C(F)(F)F` [SC-102, [1-Benzyl-4-methyl-5-(trifluoromethyl)-3-[4-(trifluoromethyl)-phenyl]-1H-pyrrol-2-yl]-morpholin-4-yl-methanone] belongs 75 to 95%; to `Cc1c(-c2ccc(Cl)c(F)c2)c(C(=O)N2CCOCC2)n(Cc2ccccc2)c1C(F)(F)F` [SC-103, [1-Benzyl-3-(4-chloro-3-fluoro-phenyl)-4-methyl-5-(trifluoromethyl)-1H-pyrrol-2-yl]-morpholin-4-yl-methanone], 75 to 95%; to `Cc1c(-c2ccc(F)c(Cl)c2)c(C(=O)N2CCOCC2)n(Cc2ccccc2)c1C(F)(F)F` [SC-104, [1-Benzyl-3-(3-chloro-4-fluoro-phenyl)-4-methyl-5-(trifluoromethyl)-1H-pyrrol-2-yl]-morpholin-4-yl-methanone], 75 to 95%. The figure for `Cc1c(-c2ccc(OC(F)(F)F)cc2)c(C(=O)N2CCOCC2)n(Cc2ccccc2)c1C(F)(F)F` [SC-105, [1-Benzyl-4-methyl-5-(trifluoromethyl)-3-[4-(trifluoromethyloxy)-phenyl]-1H-pyrrol-2-yl]-morpholin-4-yl-methanone] is 75 to 95%; for `Cc1c(-c2ccc(Cl)cc2)c(C(=O)N(C)CC(C)(C)CO)n(Cc2ccccc2)c1C(F)(F)F` [SC-106, 1-Benzyl-3-(4-chlorophenyl)-N-(3-hydroxy-2,2-dimethyl-propyl)-N,4-dimethyl-5-(trifluoromethyl)-1H-pyrrole-2-carboxylic acid amide] it is above 95%; for `Cc1c(-c2ccc(Cl)cc2F)c(C(=O)N(C)CC(C)(C)CO)n(Cc2ccccc2)c1C(F)(F)F` [SC-107, 1-Benzyl-3-(4-chloro-2-fluoro-phenyl)-N-(3-hydroxy-2,2-dimethyl-propyl)-N,4-dimethyl-5-(trifluoromethyl)-1H-pyrrole-2-carboxylic acid amide] it is above 95%. To `Cc1c(-c2ccc(Cl)cc2)c(C(=O)N(C)CCC(C)(C)O)n(Cc2ccccc2)c1C(F)(F)F` [SC-113, 1-Benzyl-3-(4-chlorophenyl)-N-(3-hydroxy-3-methyl-butyl)-N,4-dimethyl-5-(trifluoromethyl)-1H-pyrrole-2-carboxylic acid amide] belongs above 95%; to `Cc1c(-c2ccc(Cl)cc2)c(C(=O)N(C)CC2(CO)CC2)n(Cc2ccccc2)c1C(F)(F)F` [SC-115, 1-Benzyl-3-(4-chlorophenyl)-N-[[1-(hydroxymethyl)-cyclopropyl]-methyl]-N,4-dimethyl-5-(trifluoromethyl)-1H-pyrrole-2-carboxylic acid amide], above 95%; to `Cc1c(-c2ccc(Cl)cc2)c(C(=O)N(C)CC2(CO)CCC2)n(Cc2ccccc2)c1C(F)(F)F` [SC-116, 1-Benzyl-3-(4-chlorophenyl)-N-[[1-(hydroxymethyl)-cyclobutyl]-methyl]-N,4-dimethyl-5-(trifluoromethyl)-1H-pyrrole-2-carboxylic acid amide], above 95%. Regarding `Cc1c(-c2ccc(Cl)cc2)c(C(=O)N2CCC(CO)C2)n(Cc2ccccc2)c1C(F)(F)F` (centres unmarked) [SC-117, [1-Benzyl-3-(4-chlorophenyl)-4-methyl-5-(trifluoromethyl)-1H-pyrrol-2-yl]-[3-(hydroxymethyl)-pyrrolidin-1-yl]-methanone], the inhibition at 3 µM fell in the range of 75 to 95%. `Cc1c(-c2ccc(Cl)cc2)c(C(=O)N(C)CC(C)(C)CN2CCOCC2)n(Cc2ccccc2)c1C(F)(F)F` [SC-118, 1-Benzyl-3-(4-chlorophenyl)-N-(2,2-dimethyl-3-morpholin-4-yl-propyl)-N,4-dimethyl-5-(trifluoromethyl)-1H-pyrrole-2-carboxylic acid amide]: the inhibition at 3 µM was above 95%. The figure for `CCc1c(-c2ccc(Cl)cc2)c(C(=O)N(C)CC(C)(C)C)n(Cc2ccccc2)c1C(F)(F)F` [SC-119, 1-Benzyl-3-(4-chlorophenyl)-N-(2,2-dimethyl-propyl)-4-ethyl-N-methyl-5-(trifluoromethyl)-1H-pyrrole-2-carboxylic acid amide] is 75 to 95%; for `CN(CC(C)(C)C)C(=O)c1c(-c2ccc(Cl)cc2)c(C2CC2)c(C(F)(F)F)n1Cc1ccccc1` [SC-120, 1-Benzyl-3-(4-chlorophenyl)-4-cyclopropyl-N-(2,2-dimethyl-propyl)-N-methyl-5-(trifluoromethyl)-1H-pyrrole-2-carboxylic acid amide] it is 75 to 95%; for `Cc1c(-c2ccc(Cl)cc2)c(C(=O)N(C)CC2CCOC2)n(Cc2ccccc2)c1C(F)(F)F` (centres unmarked) [SC-121, 1-Benzyl-3-(4-chlorophenyl)-N,4-dimethyl-N-(tetrahydro-furan-3-yl-methyl)-5-(trifluoromethyl)-1H-pyrrole-2-carboxylic acid amide] it is above 95%. The figure for `Cc1c(-c2ccc(Cl)cc2)c(C(=O)N(C)C(C)(C)CCO)n(Cc2ccccc2)c1C(F)(F)F` [SC-122, 1-Benzyl-3-(4-chlorophenyl)-N-(3-hydroxy-1,1-dimethyl-propyl)-N,4-dimethyl-5-(trifluoromethyl)-1H-pyrrole-2-carboxylic acid amide] is above 95%. On to `Cc1c(-c2ccc(Cl)cc2)c(C(=O)N2CCC(S(C)(=O)=O)C2)n(Cc2ccccc2)c1C(F)(F)F` (centres unmarked) [SC-123, [1-Benzyl-3-(4-chlorophenyl)-4-methyl-5-(trifluoromethyl)-1H-pyrrol-2-yl]-(3-methylsulfonyl-pyrrolidin-1-yl)-methanone], for which the inhibition at 3 µM was above 95%. To `Cc1c(-c2ccc(Cl)cc2)c(C(=O)N(C)C(CO)C(C)(C)C)n(Cc2ccccc2)c1C(F)(F)F` (centres unmarked) [SC-124, 1-Benzyl-3-(4-chlorophenyl)-N-[1-(hydroxymethyl)-2,2-dimethyl-propyl]-N,4-dimethyl-5-(trifluoromethyl)-1H-pyrrole-2-carboxylic acid amide] belongs above 95%.
